Data on five compounds can be found in patent publication US12577245B2, “Sulfonyl benzamide derivatives as Bcl-2 inhibitors” (ASCENTAGE PHARMA (SUZHOU) CO., LTD., priority 2021, dated 2026).

The subject of test [1] is MV-4-11 cells. The test can be described thus: CCK-8 cell viability assay in MV-4-11 cells. Particulars: Homo sapiens, MV4-11, 72 h, 10% FBS, 3 days. The class given is cell-based. An outline of the steps:
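MV-4-11 cells (20000/well) were exposed to serially diluted compound for 3 days at 37 °C. Viability was then measured with CCK-8 (1–4 h, absorbance 450 nm). IC50 was derived from readings normalized to vehicle.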
For orientation: Tetrazolium assays rely on reduction of a dye to a coloured formazan, in cell work by metabolically active cells.

The target in test [2] is Bcl-2 WT (Homo sapiens, UniProt P10415). As to the kind of experiment: Bcl-2 WT inhibition, fluorescence polarization (Flu-BIM tracer) binding assay. Particulars: FP; 20 nM Bcl2, 5 nM Flu-BIM, 1 h incubation; read-out: Bcl-2 w.t. (FP).
For test [3], the system named is RS4; 11Bcl-2-G101V cells. The test can be described thus: CellTiter-Glo (CTG) cell viability assay in RS4;11-Bcl-2-G101V cells. Particulars: 72 h, 10% FBS, 3 days. The format is cell-based. The gist of the method: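 Engineered RS4;11 lines carrying Bcl-2 mutants, 10000 cells/well in RPMI-1640 with 10% FBS, exposed to serially diluted compound for 3 days at 37 °C, 5% CO2. Viability read by CellTiter-Glo luminescence, normalized to vehicle; IC50 calculated.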
Background: ATP-based viability assays read luminescence as a measure of living cells.

Bcl-2 WT, sequence (P10415 whole entry): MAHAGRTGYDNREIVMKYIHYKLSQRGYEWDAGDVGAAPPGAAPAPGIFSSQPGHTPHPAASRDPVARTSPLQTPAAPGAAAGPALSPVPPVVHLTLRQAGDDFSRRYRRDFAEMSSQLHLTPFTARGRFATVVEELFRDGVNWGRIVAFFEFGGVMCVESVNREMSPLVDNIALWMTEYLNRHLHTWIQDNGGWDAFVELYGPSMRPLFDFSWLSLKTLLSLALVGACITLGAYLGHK

On to `CC1(C)CCC(CN2CCN(c3ccc(C(=O)NS(=O)(=O)c4ccc(NC[C@H]5CC[C@](C)(O)CC5)c([N+](=O)[O-])c4)c(Oc4cnc5[nH]ccc5c4)c3)CC2)=C(c2cc(-c3cc(F)c(F)c(F)c3)cs2)C1` [Example 45, 2-((1H-pyrrolo[2,3-b]pyridin-5-yl)oxy)-4-(4-((4,4-dimethyl-2-(4-(3,4,5-trifluorophenyl)thiophen-2-yl)cyclohex-1-en-1-yl)methyl)piperazin-1-yl)-N-((4-((((1r,4r)-4-hydroxy-4-methylcyclohexyl)methyl)amino)-3-nitrophenyl)sulfonyl)benzamide], for which the IC50 worked out at 57 nM in test [1], 33.8 nM in test [2] and 1680 nM in test [3].
For `CC1(C)CCC(CN2CCN(c3ccc(C(=O)NS(=O)(=O)c4ccc(NC[C@H]5CC[C@](C)(O)CC5)c([N+](=O)[O-])c4)c(Oc4cnc5[nH]ccc5c4)c3)CC2)=C(c2cc(-c3ccc(F)c(F)c3F)cs2)C1` [Example 46, 2-((1H-pyrrolo[2,3-b]pyridin-5-yl)oxy)-4-(4-((4,4-dimethyl-2-(4-(2,3,4-trifluorophenyl)thiophen-2-yl)cyclohex-1-en-1-yl)methyl)piperazin-1-yl)-N-((4-((((1r,4r)-4-hydroxy-4-methylcyclohexyl)methyl)amino)-3-nitrophenyl)sulfonyl)benzamide], the results for the IC50 in test [1], in test [2] and in test [3] were 9 nM, 22.5 nM and 230 nM, respectively.
For `CC1(C)CCC(CN2CCN(c3ccc(C(=O)NS(=O)(=O)c4ccc(NC[C@H]5COCCO5)c([N+](=O)[O-])c4)c(Oc4cnc5[nH]ccc5c4)c3)CC2)=C(c2cc(-c3ccc(C(F)F)cc3)cs2)C1` [Example 48, (S)—N-((4-(((1,4-dioxan-2-yl)methyl)amino)-3-nitrophenyl)sulfonyl)-2-((1H-pyrrolo[2,3-b]pyridin-5-yl)oxy)-4-(4-((2-(4-(4-(difluoromethyl)phenyl)thiophen-2-yl)-4,4-dimethylcyclohex-1-en-1-yl)methyl)piperazin-1-yl)benzamide], in that order: 9 nM, 20.2 nM and 810 nM.
For `CC1(C)CCC(CN2CCN(c3ccc(C(=O)NS(=O)(=O)c4ccc(NC[C@H]5CC[C@](C)(O)CC5)c([N+](=O)[O-])c4)c(Oc4cnc5[nH]ccc5c4)c3)CC2)=C(c2cc(-c3ccc(C(F)F)cc3)cs2)C1` [Example 49, 2-((1H-pyrrolo[2,3-b]pyridin-5-yl)oxy)-4-(4-((2-(4-(4-(difluoromethyl)phenyl)thiophen-2-yl)-4,4-dimethylcyclohex-1-en-1-yl)methyl)piperazin-1-yl)-N-((4-((((1r,4r)-4-hydroxy-4-methylcyclohexyl)methyl)amino)-3-nitrophenyl)sulfonyl)benzamide], in that order: 9 nM, 38.4 nM and 420 nM.
As for `CC1(C)CCC(CN2CCN(c3ccc(C(=O)NS(=O)(=O)c4ccc(NC[C@H]5COCCO5)c([N+](=O)[O-])c4)c(Oc4cnc5[nH]ccc5c4)c3)CC2)=C(c2cc(-c3ccc(F)c(F)c3)cs2)C1` [Example 50, (S)—N-((4-(((1,4-dioxan-2-yl)methyl)amino)-3-nitrophenyl)sulfonyl)-2-((1H-pyrrolo[2,3-b]pyridin-5-yl)oxy)-4-(4-((2-(4-(3,4-difluorophenyl)thiophen-2-yl)-4,4-dimethylcyclohex-1-en-1-yl)methyl)piperazin-1-yl)benzamide], the IC50 in test [1] turned out to be 65 nM; in test [2], 30.4 nM; in test [3], 1950 nM.
